How the values were obtained:
GalNAc-T4 lectin domain = molecular target: T1, GalNAc-T4 lectin domain (Homo sapiens, UniProt Q8N4A0); test: Inhibition of GalNAc-T4 lectin domain (T4ld) binding to GalNAc-MUC1 glycopeptide, ELISA
T1 construct: comprises amino acid residues 405-578 of GALNT4; made in house; host or cells: baculovirus (pAcGP67-A), virus made in Sf9, protein produced in High Five insect cells
Procedure: (§1) Direct binding ELISA assay was developed as follows: Polystyrene microtiter plates (Maxisorb, Nunc, Denmark) were coated with peptides or enzymatically glycosylated glycopeptides in PBS overnight at 4° C. Plates were washed and blocked with 0.1% Tween20 and 0.2% BSA in PBS for 1 h at room temperature, followed by incubation with biotinylated proteins in PBS with 0.05% Tween20 for 2 h at room temperature. After four washes with PBS, plates were incubated with 1:2,000 dilution streptavidin-HRP (Sigma) in PBS for 30 min at room temperature and washed four times with PBS. Development was performed with 0.5 mg/ml o-phenylenediamine and 0.02% H2O2 at room temperature for 15 min, and reaction stopped by adding 100 μl/well of 0.5 N H2SO4. Competitive inhibition assays were done at end-point titers of GalNAc-transferase proteins with one hour preincubations with inhibitor.
In binding studies using lectins without biotinylation antibodies to the HIS-tag and the T7-tag, or in some experiments antibodies raised to GalNAc-T2 and -T4 enzymes were used to detect binding.
Inhibition experiments were used to further define the binding specificity of GalNAc-T2 and -T4 secreted soluble enzymes as well as lectin domains compared to Helix Pomatia lectin (Table IV).

[1] = test system: MUC1 in CHO1d1D/MUC1F-clone2 cells; test: Cell surface expression of MUC1 by immunocytology of non-permeabilized cells (FIG. 11); type: cell-based, Chinese Hamster; conditions: 1 mM, cells grown in GalNAc
Procedure: Immunocytology: Two different procedures were applied: i) For general screening purposes, cells grown in plates or flasks were trypsinized, washed in saline, and airdried on multiwell coverslides. Slides were fixed in ice-cold acetone and stained with monoclonal antibodies and FITC-conjugated rabbit anti-mouse Ig as previously described^50. ii) For analysis of cell surface expression, cells were seeded in 6 well plates and grown for 6 hours in Hams F12 medium with serum until approximately 30-50% subconfluent. […] Cells were washed once in PBS (phosphate buffered saline without Calcium and Magnesium) and subsequently fixed in 2 ml 3% paraformaldehyde at 25° C. for 20 min followed by three washes with PBS. Free aldehyde groups were quenched by incubating in 2 mL 50 mM Ammonium Chloride in PBS for 10 min, followed by three washes with PBS and three washes with 5 min incubations each with PBS containing 0.2% Fish Skin Gelatin (Sigma). Immunostaining of cells was performed by incubation with monoclonal antibodies for 40 min at 25° C., followed by three washes with PBS and three washes of 5 min each with PBS containing 0.2% Fish Skin Gelatin. […]
We therefore investigated the effect of treatment with GalNAcα-benzyl of CHO1d1D/MUC1F-clone2 cells grown in the presence of GalNAc. […] Initially we analyzed surface expression of MUC1 by immunocytology. […]

[2] = molecular target: human GalNAc-T4 (UDP-GalNAc:polypeptide N-acetylgalactosaminyltransferase T4), secreted soluble enzyme (sT4), wild type (Homo sapiens, UniProt Q8N4A0); conditions: binding to GalNAc-MUC1 glycopeptide
Chain of human GalNAc-T4 (UDP-GalNAc:polypeptide N-acetylgalactosaminyltransferase T4), secreted soluble enzyme (sT4), wild type (Q8N4A0 36-578 limits assumed): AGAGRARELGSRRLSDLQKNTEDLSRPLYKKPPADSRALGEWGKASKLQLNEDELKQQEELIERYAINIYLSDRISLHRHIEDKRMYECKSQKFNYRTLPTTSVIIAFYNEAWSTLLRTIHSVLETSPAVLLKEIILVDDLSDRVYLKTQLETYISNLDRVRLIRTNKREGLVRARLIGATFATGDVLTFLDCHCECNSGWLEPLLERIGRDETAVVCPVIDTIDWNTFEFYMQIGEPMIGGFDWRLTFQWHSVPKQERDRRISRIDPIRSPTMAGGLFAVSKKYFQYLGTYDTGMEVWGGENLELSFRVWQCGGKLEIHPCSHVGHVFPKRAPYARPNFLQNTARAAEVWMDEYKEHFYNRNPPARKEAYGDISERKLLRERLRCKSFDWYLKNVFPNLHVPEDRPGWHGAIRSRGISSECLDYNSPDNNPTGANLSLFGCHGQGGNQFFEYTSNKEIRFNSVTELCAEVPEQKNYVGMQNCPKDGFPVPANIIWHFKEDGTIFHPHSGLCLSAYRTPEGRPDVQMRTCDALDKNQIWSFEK
Procedure: The pH of 1 ml purified protein (0.3 mg/ml) in PBS was adjusted to pH 9 with 1 M NaOH and 40 μl N-hydroxy-succinimidobiotin (Sigma) dissolved in DMF (10 mg/ml) was added. The solution was mixed end-over-end for 2 hours at room temperature, and dialyzed three times against PBS and an equal volume of glycerol was added. The biotinylated proteins were stored at −20° C. in 50% glycerol until use.
Glycopeptides were purified by C-18 reverse phase HPLC. Peptides were custom synthesized by Neosystems (Strasbourg). Biotinylated Helix Pomatia lectin (HPA) was from KemEnTec (Denmark). Anti-MUC1 HMFG2 monoclonal antibody was a generous gift from Joyce Taylor-Papadimitriou.
as §1, with “Development was performed with 0.5 mg/ml o-phenylenediamine and 0.02% H2O2 at room temperature for 15 min, and reaction stopped by adding 100 μl/well of 0.5 N H2SO4. Competitive inhibition assays were done at end-point titers of GalNAc-transferase proteins with one hour preincubations with inhibitor.” left out

T1 sequence (Q8N4A0 405-578): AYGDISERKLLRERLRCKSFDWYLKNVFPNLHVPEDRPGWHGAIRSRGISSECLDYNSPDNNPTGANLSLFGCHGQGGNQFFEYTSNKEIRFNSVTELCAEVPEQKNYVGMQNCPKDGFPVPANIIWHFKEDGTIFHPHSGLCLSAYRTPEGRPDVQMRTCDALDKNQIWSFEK

IC50 (GalNAc-T4 lectin domain)	inhibition of GalNAc-T4 lectin binding (in words) [2]	Structure (SMILES)	cell surface expression of MUC1 [1]
5 mM		CC(=O)N[C@H]1[C@@H](OCc2ccccc2)O[C@H](CO)[C@H](O)[C@@H]1O [BzlαGalNAc, benzyl-N-acetyl-alpha-D-galactosaminide]	strong inhibition
	no inhibition	CC(=O)N[C@H]1[C@@H](OCc2ccccc2)O[C@H](CO)[C@@H](O)[C@@H]1O [GlcNAcα-benzyl]	

Source: patent publication US20080038809A1, “ISOLATED LECTIN POLYPEPTIDES CONSISTING OF TRUNCATED […] UDP-GalNAc:POLYPEPTIDE N- ACETYLGALACTOSAMINYLTRANSFERASES” (GLYCOZYM APS, priority 2002, published 2008)
